According to the NIST ThermoML archive (doi:10.1021/je400004j):
Numbers after ± are expanded uncertainties.

Settings: 298.15 K, Ring tensiometer
CCCCOP(=O)([O-])OCCCC.CCCCn1cc[n+](C)c1 [1-butyl-3-methylimidazolium dibutyl phosphate] showed a surface tension liquid-gas of 29.4 ± 0.4 mN/m. Compound CCOP(=O)([O-])OCC.CCn1cc[n+](C)c1 [1-ethyl-3-methylimidazolium diethyl phosphate] has a surface tension liquid-gas of 37.1 ± 0.5 mN/m. Compound CCn1cc[n+](C)c1.COP(=O)([O-])OC [1-ethyl-3-methylimidazolium dimethylphosphate] has a surface tension liquid-gas of 44.3 ± 0.62 mN/m. Work on CCO [ethanol] yielded a surface tension liquid-gas of 21.9 ± 0.3 mN/m. CO [methanol] showed a surface tension liquid-gas of 22.4 ± 0.3 mN/m. In the case of O [water], the surface tension liquid-gas is reported as 71.9 ± 0.9 mN/m.

Same assay, conditions: 298.15 K; 101.33 kPa; Liquid; Vibrating tube method
For CCCCOP(=O)([O-])OCCCC.CCCCn1cc[n+](C)c1 [1-butyl-3-methylimidazolium dibutyl phosphate], the mass density was 1046.18 ± 0.09 kg/m3. For CCOP(=O)([O-])OCC.CCn1cc[n+](C)c1 [1-ethyl-3-methylimidazolium diethyl phosphate], the mass density was 1148.86 ± 0.14 kg/m3. CCO [ethanol] gave a mass density of 785.83 ± 0.17 kg/m3. In the case of CO [methanol], the mass density is reported as 786.55 ± 0.17 kg/m3.
